Measured values: patent US20220111044A1, “WHOLE CELL TUMOR VACCINES AND METHODS OF USE THEROF” (CHILDREN'S NATIONAL MEDICAL CENTER, priority 2019, published 2022)

Legend:
[1] = tested on: ApoE; test: IFNγ ELISA of splenocytes cocultured with Myc-suppressed irradiated B16 cells with ApoE agonist or anti-ApoE antibody; assay type: cell-based, mouse
Protocol: IFNγ was measured at 48 hours of culture (pg/ml). S: splenocytes; NS: naïve splenocytes; VS: vaccinated splenocytes; S1S: splenocytes dissected from survivor mouse; Treated: B16 cells expose to 0.25 μM BET/0.25 μM JQ1 for 4 days.
IFNγ production was quantified by ELISA at 48 hours.

[2] = tested on: PD-L1 on Neuro2a and AgN2a cells; test: PD-L1 surface expression after IFNγ stimulation, mouse neuroblastoma cell lines (flow cytometry); assay type: cell-based
Source text: (§1) The expression of PD-L1 on human neuroblastoma cell lines SY5Y and SK-N-SH (non-NMYC amplified) had similar changes with exposure to IFNγ. […] Representative tumors were dissected from naïve mice (I, V, IX, and XIII) and from mice after receipt of Id2kd vaccine (II, VI, X, and XIV), Id2kd plus PD-L1 antibody (III, VII, XI, and XV), and Id2kd plus CTLA-4 antibody (IV, VIII, XII, and XVI). Hematoxylin and eosin (H&E) staining (I±VIII) and immunofluorescence double staining (IX-XVI) for CD3 and PD-L1 were performed. The nuclei were stained with 4′,6-diamidino-2-phenylindole (DAPI). Representative micrographs from each cohort are shown. Areas of necrotic tissues are marked with black broken lines and coincide with areas of inflammatory cell infiltrates. […]
(§2) FIGS. 5A and 5B show PD-L1 is expressed at 3.7-fold-lower levels on aggressive mouse neuroblastoma cell line AgN2a, as evidenced by flow cytometry (FIG. 5A) and real-time quantitative PCR (RT-qPCR) (p<0.005, Student t test; FIG. 5B). […]
Cells from mouse tumor digests and mouse splenocytes were stained with the fluorescently conjugated antibodies described above. […] Data were analyzed using the FlowJo program (Treestar, Ashland, Oreg.). […]
(§3) A possible explanation may be the differential constitutive expression of PD-L1 by tumor cells. […] The response of PD-L1 expression to IFNγ stimulation was also determined.

[3] = tested on: PD-L1 on SK-N-SH, SH-SY5Y and IMR-32 cells; test: PD-L1 expression after IFNγ stimulation, human neuroblastoma cell lines; assay type: cell-based
Source text: as §1, with “infiltrates. Panel 1 (I-IV) and panel 3 (IX-XII) are 40× and 100× original magnification, respectively.” for “infiltrates.”
as §2, §3

Substance	IFNγ production, fold reduction ([1]; 0.3, 3 and 9 μM, 48 hours, ELISA, FIG. 10A) [fold reduction]	IFNγ secretion from splenocytes ([1]; 48 hours of culture, FIGS. 10A and 10B)	TNFα and Rantes production ([1]; co-culture with vaccinated splenocytes)	PD-L1 up-regulation ([2]; AgN2a, highest concentrations tested)	PD-L1 surface expression ([2]; Neuro2a, 24 hours of stimulation)	PD-L1 up-regulation ([3]; MYCN-amplified IMR-32, highest concentrations tested)	PD-L1 expression ([3]; SK-N-SH and SH-SY5Y (non-MYCN amplified), increasing doses)
LRVRLASHLRKLRKRLL (SEQ ID NO: 1) (COG133) [ApoE agonist peptide fragment]	6	significantly suppressed in a dose dependent manner	repressed				
IFNγ				failed to up-regulate PD-L1	increase in a dose-dependent manner	failed to up-regulate PD-L1	rises markedly
